Measurements reported in paper PMC11589101, “Profiling the endocrine-disrupting properties of triazines, triazoles, and short-chain PFAS” (Toxicological Sciences, 2024).

How the values were obtained:
[1] = system: steroidogenesis in H295R cells; format: cell-based, human; details: 48 h; for increased levels of progesterone and 17α-OH-progesterone compared with vehicle-treated controls: H295R; for effect on steroid hormone levels compared with vehicle-treated controls: highest noncytotoxic exposure concentration
Procedure: (§1) All experiments were performed using cells in passages 5 to 10. First, the highest noncytotoxic concentration (<10% decrease in viability) was determined for each compound with MTT assays. Next, the levels of 13 steroid hormones were determined in the medium after exposure of the H295R cells to the highest noncytotoxic concentration using LC-MS/MS. These concentrations were tested in triplicate (n = 3) in 3 independent experiments (N = 3), and all 9 samples were measured in LC-MS/MS. […] These dilution series were tested in 3 independent experiments (N = 3), with triplicate exposures in each of these experiments (n = 3). Supernatants of the triplicate exposures per experiment were pooled after the 48 h of exposure and the 3 pooled samples were measured with LC-MS/MS. This was done to keep the number of LC-MS/MS measurements manageable.
The exposure medium was prepared by diluting stock solutions 1,000× in the cell culture medium to obtain a final concentration of 0.1% of the solvent. Exposure was started by replacing cell culture medium with the exposure medium. […] On a separate quality control plate, cells were exposed to 10 μM forskolin (Sigma-Aldrich) and 1 μM prochloraz (Sigma-Aldrich) to serve as positive control for increased and decreased steroid hormone secretion, respectively. Exposure was started by replacing the culture medium in the cell culture plates with the exposure medium.
(§2) After 48 h of exposure, the supernatant medium from each well was transferred to the wells of a clean 48-well plate, and that plate was stored at −80 °C for later steroid measurement. MTT assays were performed by adding 500 μl of 0.5 mg/ml MTT (3-(4,5-dimethylthiazol-2-yl)-2,5-diphenyltetrazolium bromide; Sigma-Aldrich) solution in medium to each well of the 24-well cell culture plate and incubating for 1 h at 37 °C with 5% CO2. After incubation, the MTT solution was discarded and 500 μl of DMSO was added to each well to lyse the cells and dissolve the formazan crystals. Plates were shaken at 700 rpm for 10 min and absorbance was measured at 560 nm wavelength.
Hormones were concentrated from supernatants by solid phase extraction using Bond Elut Plexa cartridges, 30 mg sorbent, 1.8 ml (Agilent Technologies, Santa Clara, CA, United States). The cartridges were conditioned with 1 ml of 0.5% formic acid in methanol, and subsequent addition of 1 ml of 0.5% formic acid in water. A mix of 100 μl of H295R medium sample in 1 ml of 2% formic acid in water and 50 μl of isotopically labeled internal standards mix (Table S1) was loaded on the cartridges. These were then washed with 1 ml of water followed by 1 ml of water–methanol mixture (70:30, v/v). Cartridges were dried by vacuum and the hormones were eluted with 700 μl of methanol into 96-well-deep well polypropylene plates. Eluates were evaporated to dryness during approximately 2 h in a refrigerated CentriVap vacuum concentrator and reconstituted in 150 μl of water–methanol mixture (1:1, v/v). Additionally, a serial 12-point dilution series of a mix of native steroid hormones was prepared to fit a calibration curve in order to quantify steroid concentrations.
The steroid hormones were separated prior to MS measurements on a Kinetex C18 LC Column (2.6 μm, 100 × 2.1 mm; Phenomenex, CA, United States) coupled to an Exion LC system (SCIEX, Framingham, MA, United States). The mobile phase consisted of 0.2 mM NH4F in water and pure methanol and was delivered at a flow rate of 0.6 ml/min in a gradient elution mode. The injection volume was 10 μl.
The LC-MS/MS raw data were processed using AB Sciex OS Analyst version 1.6.2 (SCIEX, Framingham, MA, United States) to calculate fold changes by dividing the measured hormone concentrations by the hormone concentrations in the vehicle controls. The fold changes were used to fit a concentration–response curve in GraphPad Prism using the same model as in the reporter gene assays, and the ECIR1.5 was estimated for each compound.

[2] = system: H295R cells; assay: MTT cell viability assay in H295R cells; format: cell-based, human; details: 48 h; for decrease in cell viability at highest exposure concentration: 25 μM
Procedure: as §1, with “For the H295R assay, the culturing and exposure of cells were performed according to OECD Test Guideline No. 456 ([OECD 2011]). All” for “All”
as §2, with “wavelength. Concentrations causing >10% decrease in cell viability were excluded from the hormone analysis, and test compounds were retested at a lower concentration.” for “wavelength.”

[3] = system: GH3.TRE cells; assay: Resazurine cell viability assay in GH3.TRE cells; details: rat, 24 h, 100 μM
Procedure: Exposure medium was added to the cells immediately after seeding. […] Exposure conditions, resazurine assay, and luciferase measurements were similar as described for the VM7Luc4E2 cells.

[4] = biological target: T1, human transthyretin (TTR) (Homo sapiens, UniProt P02766); assay: FITC-T4 TTR-binding assay, screening method
Procedure: (§3) All incubations were performed at room temperature.
In the screening tests, 48 μl of Tris-HCl buffer (pH 8.0) was added to each well of black low-binding 96-well plates. Two microliters of each test compound dissolved in their respective solvent was added to each well and the plate was shaken at 600 rpm for 5 min. […] Fluorescence was measured again to check for possible autofluorescence or quenching by the test compound.
(§4) Fluorescence enhancement was determined for each well by subtracting its relative fluorescence units (RFU) before TTR addition from its RFUs after TTR addition. The resulting values were normalized to percentages of the vehicle control. A concentration–response curve was fitted through the data using the same model as in the reporter gene assays.

[5] = biological target: T1, human transthyretin (TTR); assay: FITC-T4 TTR-binding assay, initial (original) method
Procedure: as §3, §4
After 15 min of incubation, fluorescence was measured and fluorescence enhancement was calculated by subtracting RFU without TTR from RFU with TTR. Further data analysis was similar to the screening assays.

[6] = system: thyroid hormone receptor (TR); assay: TR-Luc reporter gene assay, antagonism (coexposure with 110 pM T3); format: cell-based; details: for TR antagonism % max combined: coexposure with 110 pM T3
[7] = screening method, read-out: IC50 TTR-binding assay, Screening Method
[8] = initial method, 110 nM FITC-T4, 30 nM TTR
[9] = initial method, 110 nM FITC-T4, 30 nM TTR, read-out: IC50 competing with FITC-T4 for binding to TTR
[10] = GH3.TRE cells, coexposed with 110 pM T3, 24 h

SMILES	IC50 [4, 7]	% FITCT4 bound to TTR ([5]; 0.1 uM)	% FITCT4 bound to TTR ([5]; 0.3 uM)	% FITCT4 bound to TTR ([5]; 1 uM)	% FITCT4 bound to TTR ([5]; 3 uM)	% FITCT4 bound to TTR ([5]; 10 uM)	% FITCT4 bound to TTR ([5]; 30 uM)	% FITCT4 bound to TTR ([5]; 100 uM)	IC10 competing with FITC-T4 for binding to TTR [5, 8]	IC50 [5, 9]	also measured
FC(F)C(F)(F)OCC(Cn1cncn1)c1ccc(Cl)cc1Cl (stereo not shown) [Tetraconazole]											increased levels of progesterone and 17α-OH-progesterone compared with vehicle-treated controls [1]: up to 3.5 fold; effect on steroid hormone levels compared with vehicle-treated controls [1]: increased levels of progesterone and decreased levels of androgens, estrogens, and corticosteroids; highest exposure concentration with <10% decrease in cell viability ([2]; H295R cells): 30 µM; cytotoxicity [3]: More than 10%
O=S(=O)(O)C(F)(F)C(F)(F)C(F)(F)C(F)(F)C(F)(F)C(F)(F)C(F)(F)C(F)(F)F [PFOS, Perfluorooctane sulfonic acid]	190 nM	75.2122%	36.6572%	10.1163%	2.093%	0.8236%	1.548%	-1.121%	47 nM	210 nM	
NC(Cn1cncn1)C(=O)O (stereo not shown) [Triazole alanine]											decrease in cell viability at highest exposure concentration [2]: ≤ 10%
O=S(=O)(O)C(F)(F)C(F)(F)C(F)(F)C(F)(F)F [PFBS, Perfluorobutane sulfonic acid]	8200 nM	97.3072%	93.7406%	89.6282%	73.6529%	44.4619%	21.5802%	11.5263%	820 nM	8300 nM	
CC(C1CC1)C(O)(Cn1cncn1)c1ccc(Cl)cc1 (stereo not shown) [Cyproconazole]											increased levels of progesterone and 17α-OH-progesterone compared with vehicle-treated controls [1]: up to 3.5 fold; effect on steroid hormone levels compared with vehicle-treated controls [1]: increased levels of progesterone and decreased levels of androgens, estrogens, and corticosteroids; cytotoxicity [3]: More than 10%
O=S(=O)(O)C(F)(F)C(F)(F)C(F)(F)C(F)(F)C(F)(F)C(F)(F)F [PFHxS, Perfluorohexane sulfonic acid]		74.2951%	47.4669%	17.2866%	8.444%	4.647%	2.41%	0.6647%	34 nM		IC50 [4]: 240 nM; IC50 [5]: 270 nM
O=C(O)C(F)(F)C(F)(F)C(F)(F)C(F)(F)C(F)(F)F [PFHxA, Perfluorohexanoic acid]	2500 nM	90.7115%	81.4177%	77.1918%	44.5805%	21.8899%	12.6684%	2.971%	200 nM	2600 nM	
CC(C)(C)C(O)C(Oc1ccc(Cl)cc1)n1cncn1 (stereo not shown) [Triadimenol]											effect on steroid hormone levels compared with vehicle-treated controls [1]: decreased estrogen and corticosteroid levels; TR antagonism % max combined ([6]; 0.3 uM): 102.48%; TR antagonism % max combined ([6]; 1 uM): 98.41%; TR antagonism % max combined ([6]; 3 uM): 105.58%; TR antagonism % max combined ([6]; 10 uM): 76.69%; TR antagonism % max combined ([6]; 30 uM): 36.13%; IC50 [6, 10]: 21300 nM; TR antagonism IC10 [6, 10]: 6300 nM; cytotoxicity [3]: More than 10%
Cc1cccc2[nH]nnc12 [4-methylbenzotriazole, 4-Methylbenzotriazole]	26300 nM	96.4305%	93.5915%	89.9761%	82.6096%	67.1205%	47.648%	21.2593%	1300 nM	23300 nM	
Nc1nc(N)[nH]c(=O)n1 [Ammeline]											decrease in cell viability at highest exposure concentration [2]: ≤ 10%
O=C(O)C(F)(OC(F)(F)C(F)(F)C(F)(F)F)C(F)(F)F (stereo not shown) [GenX, Hexafluoropropylene oxide dimer acid]	30300 nM	92.2482%	91.7718%	89.1133%	86.8896%	74.6529%	53.6966%	24.7329%	1900 nM	31900 nM	
O=C(O)C(F)(F)C(F)(F)C(F)(F)C(F)(F)C(F)(F)C(F)(F)C(F)(F)F [PFOA, Perfluorooactanoic acid]	280 nM	82.1607%	45.526%	17.6477%	6.188%	2.364%	0.3274%	0.2557%	53 nM	280 nM	
